According to publication PMC9950073, “Alleviation of arthritis through prevention of neutrophil extracellular traps by an orally available inhibitor of protein arginine deiminase 4” (Scientific Reports, 2023):

How the values were obtained:
human recombinant PAD3 = target: T1, human recombinant PAD3 (Homo sapiens, UniProt Q9ULW8); experiment: PAD3 selectivity biochemical assay measuring ammonia release; details: 10 semi-log concentrations, highest concentration tested 30 µM
T1 construct: purchased Cayman Chemicals 10786
T1 sequence (Q9ULW8 1-664): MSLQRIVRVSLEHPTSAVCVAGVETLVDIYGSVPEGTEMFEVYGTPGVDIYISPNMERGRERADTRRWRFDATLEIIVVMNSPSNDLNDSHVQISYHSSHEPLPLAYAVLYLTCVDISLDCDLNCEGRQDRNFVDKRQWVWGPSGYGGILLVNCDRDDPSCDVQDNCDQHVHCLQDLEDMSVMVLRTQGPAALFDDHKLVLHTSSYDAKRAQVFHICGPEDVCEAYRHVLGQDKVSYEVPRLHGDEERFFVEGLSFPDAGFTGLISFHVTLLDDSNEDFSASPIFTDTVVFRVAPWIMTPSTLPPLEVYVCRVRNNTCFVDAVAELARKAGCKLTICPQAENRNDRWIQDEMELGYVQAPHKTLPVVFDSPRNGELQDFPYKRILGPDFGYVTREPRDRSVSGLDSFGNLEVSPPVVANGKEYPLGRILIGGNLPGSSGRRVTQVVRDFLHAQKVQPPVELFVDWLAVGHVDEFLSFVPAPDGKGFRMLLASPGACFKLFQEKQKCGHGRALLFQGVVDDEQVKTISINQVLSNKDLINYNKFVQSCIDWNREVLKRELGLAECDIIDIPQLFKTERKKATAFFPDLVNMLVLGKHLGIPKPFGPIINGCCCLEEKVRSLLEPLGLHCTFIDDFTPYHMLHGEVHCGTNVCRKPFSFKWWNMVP

human neutrophils = experiment: In vitro NET assay, human neutrophils; assay type: cell-based; details: 10 μM, ionomycin 4 µM 4 h
Text: All blood samples from healthy donors who participated in this study were obtained after informed consent in accordance with relevant guidelines and regulations given by the ACE Independent ethics committee for Jubilant Biosys Ltd and Office of Clinical Investigations at Boston Children’s Hospital. The ACE Independent ethics committee, Bangalore, approved the use of human whole blood/PBMC/Enriched Subset in Jubilant Biosys Ltd investigations, Drug Controller General of India (DCGI) Reg No. ECR/141/Indt/KA/2013. Briefly, 10 mL K2EDTA vacutainers were used to collect fresh blood from healthy donors (BD vacutainer, Catalog No: BD 367525). A total of 50 ml of blood was taken from a single, healthy human donor. Neutrophils were isolated from human blood using the EasySep Direct Human Neutrophil Isolation Kit, according to the manufacturer's instructions (Stem Cell Technology, Catalog No: 19666). […]
Mouse or human neutrophils were resuspended in HEPES-supplemented phenol red-free RPMI1640 medium and 1.5 × 10^4 cells were seeded per well in a 96-well plate. […] Images were obtained with a Zeiss Axiovert 200 M wide-field fluorescence microscope (Zeiss, Oberkochen, Germany) with the Zeiss AxioVision software. The percentages of H4Cit positive neutrophils and neutrophil extracellular traps (NETs) were calculated by quantifying more than 200 randomly selected cells. […]

human recombinant PAD6 = target: T2, human recombinant PAD6 (Homo sapiens, UniProt Q6TGC4); experiment: PAD6 selectivity biochemical assay measuring ammonia release; details: 10 semi-log concentrations, highest concentration tested 30 µM
T2 construct: purchased Signal Chem T1065-3
T2 sequence (Q6TGC4 1-694): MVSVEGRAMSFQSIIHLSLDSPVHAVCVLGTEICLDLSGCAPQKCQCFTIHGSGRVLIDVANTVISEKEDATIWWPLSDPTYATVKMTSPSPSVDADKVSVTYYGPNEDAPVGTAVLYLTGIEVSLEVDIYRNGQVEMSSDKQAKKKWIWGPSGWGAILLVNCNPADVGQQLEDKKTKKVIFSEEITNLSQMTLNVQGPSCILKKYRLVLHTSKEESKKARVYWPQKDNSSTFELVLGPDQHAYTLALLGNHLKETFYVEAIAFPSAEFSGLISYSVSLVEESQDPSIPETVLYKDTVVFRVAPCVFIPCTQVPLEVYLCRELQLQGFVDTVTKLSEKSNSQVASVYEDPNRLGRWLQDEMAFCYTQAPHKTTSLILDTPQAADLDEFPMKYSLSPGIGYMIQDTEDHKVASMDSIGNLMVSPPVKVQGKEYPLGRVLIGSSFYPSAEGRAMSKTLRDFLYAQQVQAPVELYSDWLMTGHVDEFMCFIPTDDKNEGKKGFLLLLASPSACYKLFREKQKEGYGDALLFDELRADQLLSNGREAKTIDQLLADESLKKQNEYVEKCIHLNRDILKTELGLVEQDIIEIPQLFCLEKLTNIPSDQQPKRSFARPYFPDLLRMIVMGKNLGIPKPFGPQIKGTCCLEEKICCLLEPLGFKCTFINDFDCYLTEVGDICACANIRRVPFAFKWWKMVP

[1] = Microsomal stability, RLM; assay type: in vitro ADME, rat; details: 1 µM, liver microsomes 0.5 mg/mL; one range given for HLM/MLM/DLM/RLM
Experimental: (§1) Microsomal stability: Liver microsomes (0.5 mg/mL) from different species were incubated with JBI-589 (1 µM) with or without NADPH (1 mM) at 37 °C for 30 min in potassium phosphate buffer (pH 7.4) and then reaction was stopped with quenching solution (0.5% Formic acid in internal standard (IS) containing ACN). Resulting samples were centrifuged and supernatant was taken for LC–MS/MS analysis. Percent metabolism was calculated as follows: % Metabolized: [1 − (test area ratio/control area ratio)] *100.

[2] = Microsomal stability, DLM; assay type: in vitro ADME, dog; details: 1 µM, liver microsomes 0.5 mg/mL; one range given for HLM/MLM/DLM/RLM
Experimental: as §1

Cc1c(-c2cc3ccccc3n2Cc2ccc(F)cc2)nc2cc(C(=O)N3CCC[C@@H](N)C3)ccn12 [JBI-589, (R)-(3-aminopiperidin-1-yl)(2-(1-(4-fluorobenzyl)-1H-indol-2-yl)-3-methylimidazo[1,2-a]pyridin-7-yl)methanone]
inhibitory activity against PAD3 (human recombinant PAD3): did not have any inhibitory activity | H4Cit positivity (human neutrophils): the same effect was confirmed | NET formation (human neutrophils): the same effect was confirmed | inhibitory activity against PAD6 (human recombinant PAD6): did not have any inhibitory activity | RLM % metabolized @ 30 min [1]: 25-50% | DLM % metabolized @ 30 min [2]: 25-50%
